{"source": "patent US20250263370A1", "about": "(Tay Therapeutics Limited, priority 2022, published 2025)", "key": {"[1]": {"system": "rat anti-collagen IgG1 antibodies", "assay": "Rat anti-collagen IgG1 antibodies in serum of CIA rats at day 21", "format": "in vivo, Lewis rat", "conditions": "Group 4 (CIA + GSK620)", "protocol": "Blood was additionally collected from groups 1-7 via cardiac puncture following euthanasia on Day 21. […] Serum was divided into two separate tubes and stored at −75±15° C. One tube was used to analyze IgG1, and the other tube was reserved for additional analyses."}, "[2]": {"system": "collagen-induced arthritis", "assay": "Histopathologic analysis of H&E-stained hind limbs of CIA rats", "format": "in vivo, Lewis rat", "description": "Hind limbs were collected following euthanasia, with the left limb being used for H&E staining.\nH&E-stained slides of designated tissues from animals were transferred to an independent pathologist for microscopic evaluation (SPFBio). Samples were assigned the histologic grades based on the severity of change from tissue where CIA was not induced. Histology grades assigned were as follows: grade 1 (minimal change), grade 2 (mild change), grade 3 (moderate change), grade 4 (marked change), and grade 5 (severe change).\nModerate inflammation was also associated with increased edema fluid, fibrin, and cellular debris. Marked mixed cell inflammation was characterized by dense, widespread accumulations of neutrophils and macrophages with lesser number of lymphocytes within one or more joint spaces, synovium and periarticular soft tissues. Marked inflammation was also associated with abundant edema fluid, fibrin, and cellular debris.\nMarked granulation tissue (pannus) was associated with inflammation and was characterized by widespread fibrovascular connective tissue that expanded/replaced the periarticular soft tissues of one or more joints, extended into/expanded joint spaces, was contiguous with areas of erosion/ulcer in articular cartilage and/or increased eroded surface of bone, and variably extended along the diaphysis.\nInstances of minimal increased eroded surface were not associated with fragments of bone contiguous and/or surrounded by granulation tissue. […] In some areas, increased eroded surfaces were contiguous with areas of erosion/ulcer in the articular cartilages. Instance of marked increased eroded surface were often associated with fragments of bone contiguous with and/or surrounded by granulation tissue.\nThis observation was typically most pronounced at joint margins (transition zone). The ulceration was often associated with inflammation and granulation tissue extending through the defect to the subchondral bone.\nMarked increased periosteal bone (periosteal bone formation) was characterized by extensive areas of increased bone matrix and numerous prominent osteoblasts lining trabecular surfaces along the metaphysis and/or diaphysis of one or more bones. In some areas, increased periosteal bone was contiguous with increased eroded surface and/or erosion/ulcer at articular cartilage."}, "[3]": {"system": "collagen-induced arthritis", "conditions": "rat, in vivo, po"}, "[4]": {"conditions": "CIA rats, daily P.O. (group 4), hind limb H&E"}, "[5]": {"conditions": "hind limbs, CIA induced, 8 animals examined"}}, "note": "Values joined by “and” are separate entries in the source; they are usually repeats but may differ in a detail not shown here. Equal entries are not always repeated. Marks after values point to notes of the source that are not given here.", "data": [{"smiles": "CNC(=O)c1cc(C(=O)NC2CC2)cn(Cc2ccccc2)c1=O", "note": "[GSK620]", "values": [{"measurement": "Average rat anti-collagen IgG1 levels, Mean", "setting": "[1]; day 21, group mean", "value": "7532.82*"}, {"measurement": "Final Rat Anti-Collagen IgG1 Antibody Con.", "setting": "[1]; day 21, per animal", "value": "9149.39 units/ml and 10971.56 units/ml and 258.62 units/ml and 1400.18 units/ml and 15017.25 units/ml and 2682.44 units/ml and 9308.00 units/ml and 11475.12 units/ml"}, {"measurement": "Rat Anti-Collagen IgG1 Antibody Con.", "setting": "[1]; before multiplying by Fold 2000, day 21, per animal", "value": "4.57 units/ml and 5.49 units/ml and 0.13 units/ml and 0.70 units/ml and 7.51 units/ml and 1.34 units/ml and 4.65 units/ml and 5.74 units/ml"}, {"measurement": "erosion/ulcer in articular cartilage", "setting": "[2]; [4]", "value": "mild and mild to moderate"}, {"measurement": "granulation tissue (pannus)", "setting": "[2]; [4]", "value": "mild and mild to moderate"}, {"measurement": "increased eroded surface of bone (bone resorption)", "setting": "[2]; [4]", "value": "mild and minimal to moderate"}, {"measurement": "increased periosteal bone (periosteal bone formation)", "setting": "[2]; [4]", "value": "mild and mild to moderate"}, {"measurement": "mixed cell inflammation", "setting": "[2]; [4]", "value": "moderate"}, {"measurement": "pathologic observations after microscopic evaluation, overall", "setting": "[2]; CIA rats, daily P.O. for 21 days", "value": "at a lower level relative to samples from animals in the CIA-induced group"}, {"measurement": "Number of animals: Erosion/Ulcer, cartilaginous, Marked", "setting": "[2]; [5]", "value": 0}, {"measurement": "Number of animals: Erosion/Ulcer, cartilaginous, Mild", "setting": "[2]; [5]", "value": 6}, {"measurement": "Number of animals: Erosion/Ulcer, cartilaginous, Minimal", "setting": "[2]; [5]", "value": 0}, {"measurement": "Number of animals: Erosion/Ulcer, cartilaginous, Moderate", "setting": "[2]; [5]", "value": 2}, {"measurement": "Number of animals: Granulation tissue, Marked", "setting": "[2]; [5]", "value": 0}, {"measurement": "Number of animals: Granulation tissue, Mild", "setting": "[2]; [5]", "value": 4}, {"measurement": "Number of animals: Granulation tissue, Minimal", "setting": "[2]; [5]", "value": 0}, {"measurement": "Number of animals: Granulation tissue, Moderate", "setting": "[2]; [5]", "value": 4}, {"measurement": "Number of animals: Increased bone, periosteum, Marked", "setting": "[2]; [5]", "value": 0}, {"measurement": "Number of animals: Increased bone, periosteum, Mild", "setting": "[2]; [5]", "value": 6}, {"measurement": "Number of animals: Increased bone, periosteum, Minimal", "setting": "[2]; [5]", "value": 0}, {"measurement": "Number of animals: Increased bone, periosteum, Moderate", "setting": "[2]; [5]", "value": 2}, {"measurement": "Number of animals: Increased eroded surface, bone, Marked", "setting": "[2]; [5]", "value": 0}, {"measurement": "Number of animals: Increased eroded surface, bone, Mild", "setting": "[2]; [5]", "value": 4}, {"measurement": "Number of animals: Increased eroded surface, bone, Minimal", "setting": "[2]; [5]", "value": 1}, {"measurement": "Number of animals: Increased eroded surface, bone, Moderate", "setting": "[2]; [5]", "value": 3}, {"measurement": "Number of animals: Mixed cell inflammation, Marked", "setting": "[2]; [5]", "value": 0}, {"measurement": "Number of animals: Mixed cell inflammation, Mild", "setting": "[2]; [5]", "value": 0}, {"measurement": "Number of animals: Mixed cell inflammation, Minimal", "setting": "[2]; [5]", "value": 0}, {"measurement": "Number of animals: Mixed cell inflammation, Moderate", "setting": "[2]; [5]", "value": 8}, {"measurement": "Number of animals: No Visible Lesions", "setting": "[2]; [5]", "value": 0}, {"measurement": "body weight over the course of the study", "setting": "[3]", "value": "modest weight gains over the first 13 days of the study followed by weight loss"}, {"measurement": "diarrhea over the 21-day period", "setting": "[3]", "value": "did not have diarrhea"}, {"measurement": "increase in body weight, day 21 compared to day 0", "setting": "[3]", "value": 0.8, "unit": "%"}]}]}
